# What was measured:
# HeLa = test: MTT assay, in vitro cytotoxicity; format: cell-based, human; settings: 72 h
# Method: (§1) The cell lines were maintained in cell culture media (Minimum essential medium (MEM) for HeLa; and Dulbecco's modified eagle medium (DMEM) for MDA-MB-231 and MiHa, Roswell Park Memorial Institute (RPMI) medium for NCI-H460 and HCT116 supplemented with fetal bovine serum (10 vol %), streptomycin (100 μg/ml) and penicillin (100 U/ml) in an incubator (5% CO2) at 37° C.
# (§2) The inhibition of cell growth by different metal complexes were determined by MTT assay. Firstly, 4×10^3 to 8×10^3 cells were seeded on 96-well culture plates for 24 h. Then, different concentrations of complex was added into different wells by serial dilution and the cells were incubated with complex for 48-72 h. After that, 10 μl of MTT solution (5 mg/ml) was added per well and the plate was incubated for 4 h at 37° C. in a humidified atmosphere of 5% CO2. Viable cells with active metabolism converted MTT into a purple colored formazan product. In order to solubilize the formazan for absorbance readings, 100 μl of SDS (0.1 g/ml, 0.01 M HCl) was added per well and the plate was kept in a dark and humidified chamber overnight. Finally, the absorbance at 580 nm of each well was monitored by microtiter plate reader.
# (§3) The growth inhibition by a specific complex was represented by IC50 (concentration of a complex causing 50% inhibition of cell growth). Each experiment was repeated three times and the results were expressed as means±standard deviation (SD).
# NCI-H460 = test: MTT assay, in vitro cytotoxicity; format: cell-based, human; settings: 72 h
# Method: as §1, §2, §3
# HCT116 = test: MTT assay, in vitro cytotoxicity; format: cell-based, human; settings: 72 h
# Method: as §1, §2, §3
# MDA-MB-231 = test: MTT assay, in vitro cytotoxicity / cell growth; format: cell-based, human; settings: for cell growth inhibition, agent alone: 1b at sub-cytotoxic concentration, LY294002 or U0126 10 or 20 μM
# MiHa = test: MTT assay, in vitro cytotoxicity, non-tumorigenic hepatocyte; format: cell-based, human; settings: 72 h
# Method: as §1, §2
# The growth inhibition by a specific complex was represented by IC50 (concentration of a complex causing 50% inhibition of cell growth). […]
# [1] = test system: uPA, MMP-9, TIMP-1 in MDA-MB-231 cells; test: Western blot of uPA, MMP-9 and TIMP1; format: cell-based, human
# Method: (§4) MDA-MB-231 cells (5×10^5 cells) were incubated with Pt compound and washed with phosphate-buffered saline (PBS), lysed with radioimmunoprecipitation assay buffer (1% Triton X-100, 10% glycerol, 150 mM NaCl, 5 mM sodium fluoride, 1 mM sodium vanadate and protein inhibitor cocktail) for 15 min at 4° C. The cell lysates were centrifuged at 13,000 rpm for 15 min at 4° C. The protein concentrations of the extracts were determined using a BCA protein assay kit (Beyotime, Haimen, China). Specific amount of protein sample (30 μg) was then boiled for 5 min in a 5× sample buffer (50 mM Tris (pH 7.4), 4% sodium dodecyl sulfate (SDS), 10% glycerol and 50 μg/mL bromophenol blue) at a volume ratio of 4:1. Protein samples were subjected to SDS-polyacrylamide gel electrophoresis (PAGE), transferred to polyvinylidene difluoride membranes and immunoblotted with primary anti-bodies. After further incubation with horseradish peroxidase (HRP)-conjugated secondary antibody, the blot was stained with a chemiluminescent detection reagent and subsequently analyzed by enhanced chemiluminescence. Protein expression was visualized on Kodak Biomax X-ray film.
# [2] = Blood biochemistry, systemic toxicity; settings: treated vs untreated mice bearing MDA-MB-231 xenografts
# MDA-MB-231 cells [3] = test: Transwell invasion assay; format: cell-based, human; settings: for inhibition of invasion, agent alone: 1b at sub-cytotoxic concentration, LY294002 or U0126 10 or 20 μM
# MDA-MB-231 xenografts = test: In vivo tumor growth inhibition; design: species or system nude mice; settings: 5 and 2.5 mg/kg
# Method: All experiments were followed to the guidelines of the Laboratory Animal Unit of the University of Hong Kong. Ten mice were randomly divided into two groups (5 mice for each group) for two different treatment conditions.
# Around 4×10^6 of cancer cells in 100 μL of PBS were injected into right back flanks of the mice through subcutaneous injection. […] The size of the tumors were measured by a ruler every 2-3 days until the mice were sacrificed. The longest diameter (a) and shortest diameter (b) of the tumor would be picked up and the volume of the tumor could be calculated through the following formula: V=0.52×ab^2
# It should be noted that the body weight of the mice were also be recorded in order to examine the side effect of the drugs.
# To calculate the inhibition effect of the drug, the ratio of enlargement of tumor volume between the drug treatment group and control group would be applied in the following formula:
# where Vt and Vt′ are the tumor volumes of drug treatment and control group respectively; V0 and V0′ are the tumor volume at the 0 day of drug treatment and control group respectively.
# in vitro = format: cell-based; settings: mouse
# Method: (§5) At the same time, the cell viability under the same condition was determined by MTT assay. Again, around 4×10^4 MS-1 cells in 100 μL DMEM medium was pre-mixed with different concentrations of complex and they were seeded into 96-well plate. After 2 h, the medium was removed and fresh medium with 10% MTT was added per well and the plate was incubated for 4 h at 37° C. in a humidified atmosphere of 5% CO2. In order to solubilize the formazan for absorbance readings, 100 μl of SDS (0.1 g/ml, 0.01 M HCl) was added per well and the plate was kept in a dark and humidified chamber overnight. Finally, the absorbance at 580 nm of each well was monitored by microtiter plate reader. Each experiment was repeated three times and the results were expressed as means±standard deviation (SD).
# MS1 cells [4] = test: in vitro; format: cell-based
# Method: as §5
# MS1 cells [5] = test: Tube formation assay; format: cell-based; settings: 3 h, sub-cytotoxic concentrations
# Method: The In Vitro Angiogenesis Kit (CaymanChemical) was used in the tube formation assay. Firstly, the ECMatrix solution and 10× Diluent Buffer were mixed in 9:1 (v/v) ratio on ice. Then 50 μL of mixture was transferred into each well of 96-well plate and incubated at 37° C. for 1 h for polymerization. Then, around 4×10^4 of MS-1 cells in 100 μL DMEM medium was pre-mixed with different concentrations of complex and that cell-complex containing medium was added on the top of the polymerized matrix. […]
# chicken CAM = test: Chorioallantoic membrane (CAM) assay, ex vivo angiogenesis; settings: VEGF 50 ng/mL, one day
# Method: The effect of Pt complex on the ex vivo angiogenesis was determined by chorioallantoic membrane (CAM) assay. Briefly, fertilized chicken eggs were incubated at 37° C. in a humidified incubator with forced air circulation. After 5-6 days, eggs were cracked open and methylcellulose discs containing different concentrations of 1d (40 μl/egg) and VEGF (50 ng/mL) were gently implanted on top of chicken CAM. After one day incubation, the CAM was observed under a microscope (Olympus BX 40) and photographed. VEGF treatment group was used as a positive control. Three eggs per group were used in each experiment and three independent experiments were performed.
# HeLa cells [6] = test: Confocal fluorescence microscopy co-localization with organelle probes; format: cell-based, human; settings: 1b 5 μM
# Method: HeLa cells (2×10^5 cells) were seeded in a one chamber slide (Nalgene; Nunc) with culture medium (2 mL per well) and incubated at 37° C. in a humidified atmosphere of 5% CO2/95% air for 24 h. After treating with 1b (5 μM) for 1 h, ER-tracker™ red (1 μM), Mitotracker® deep red (50 nM) or Lysotracker® deep red (50 nM) were incubated with cells for 10 min, and then the cells were washed with PBS twice. Confocal fluorescence images were captured using a Carl Zeiss LSM510 Meta confocal microscope with the use of 488 and 543 nm/633 nm lasers for the excitation of complex 1b and red/deep red tracker respectively, under a Plan-Apochromat 63×1.40NA oil-immersion objective.
# [7] = test system: MDA-MB-231 xenograft tumor tissues; test: Immunohistochemical analysis of tumor tissues from treated mice; format: in vivo, nude mice; settings: 2.5 and 5.0 mg/kg
# HeLa cells [8] = test: JC1 staining (mitochondrial membrane potential); format: cell-based, human; settings: with increasing dosage, 2 h
# MDA-MB-231 cells [9] = test: Wound closure (scratch) migration assay; format: cell-based, human; settings: for inhibition of migration, agent alone: 1b at sub-cytotoxic concentration, LY294002 or U0126 10 or 20 μM
# Method: MDA-MB-231 cells were cultured in 6-well plate and allowed to form a confluent monolayer for 24 h. After serum starved for 4 h, cells were scratched by pipette tips, washed with PBS and photographed by using a fluorescence microscope (20× objective). The fresh medium supplemented with 10 vol % FBS was added into each well with different concentrations of Pt complex. After incubated for 24 h, cells were photographed again at three random areas. Then the migrated cells were quantified by manual counting and inhibition ratio was expressed as % of control.
# [10] = test system: p15, cyclin D1/D3, CDK 4/6 in MDA-MB-231 cells; test: Western blot of G0/G1 phase-related proteins; format: cell-based, human; settings: 24 h
# Method: as §4
# HUVECs [11] = test: Conditioned medium (VEGF)-mediated transwell invasion; format: cell-based, human; settings: MDA-MB-231 conditioned medium VEGF 13.4 ng/mL, 24 h, sub-cytotoxic
# Method: (§6) Human umbilical vein endothelial cells (HUVEC) were cultured in endothelial cell growth medium (ECGM): M199 medium (Life Technologies, Invitrogen) supplemented with 15 vol % fetal bovine serum at 37° C. in a humidified (5% CO2, 95% air) atmosphere.
# Effects of Pt complex on the invasion of MDA-MB-231 or HUVECs cells were performed on Transwell Boyden chamber (8 μm pore, Corning, Lowel, Mass.) pre-coated with matrigel for 4 h at 37° C. The cell suspension (2.5×10^5 cells/ml, 100 μL) in serum free medium (SFM) was placed to the upper compartment of chamber. The bottom chambers were supplemented with 500 μl complete medium (10 vol % FBS) or conditioned medium (with VEGF=13.4 ng/ml from MDA-MB-231 cells) containing indicated concentrations of Pt complex. After incubated for 24 h, the non-migrant cells from the upper face were scraped using a cotton swab. The invaded cells on the lower face were fixed with methanol, stained with Giemsa, photographed by a phase-contrast microscope (200×, Nikon TS 100). The invaded cells were quantified by manual counting and inhibition ratio was expressed as % of control.
# HUVECs [12] = test: Conditioned medium (VEGF)-mediated migration; format: cell-based, human; settings: MDA-MB-231 conditioned medium VEGF 13.4 ng/mL, 24 h, sub-cytotoxic
# Method: as §6
# HUVECs [13] = test: Conditioned medium (VEGF)-mediated tube formation; format: cell-based, human; settings: MDA-MB-231 conditioned medium VEGF 13.4 ng/mL, 24 h, sub-cytotoxic
# Method: as §6
# [14] = test system: PARP, caspases 3 and 9 in MDA-MB-231 cells; test: Western blot of apoptosis-related proteins; format: cell-based, human; settings: 48 h
# Method: as §4
# [15] = test system: FAK, ERK, Akt in MDA-MB-231 cells; test: Western blot of phosphorylated and total FAK, ERK and Akt; format: cell-based, human
# Method: as §4
# [16] = test system: PERK, eIF2α, CHOP in MDA-MB-231 cells; test: Western blot of ER stress-related proteins; format: cell-based, human; settings: 5 uM for 6, 12, 24 and 48 h
# Method: as §4
# [17] = increasing concentration (24 h) or incubation time (2 μM)
# [18] = different concentrations 24 h or 2 μM over time
structure (smiles),measurement,setting,value
"N.N.[Cl][Pt][Cl] [Cisplatin, cis-diamminedichloroplatinum]",IC50,HeLa,12.9 ± 3.84 µM
same,IC50,NCI-H460,24.9 ± 3.19 µM
same,IC50,HCT116,11.8 ± 1.36 µM
same,IC50,"MDA-MB-231; MTT, 72 h",77.2 ± 7.82 µM
same,IC50,MiHa,> 100 µM
CCCCN1C=CN(CCCC)[CH]1[Pt]12[n]3c(c4ccccc4c3=Nc3cccc[n+]31)=Nc1cccc[n+]12 [Complex 1b],expression of TIMP-1,[1]; 24 h,moderately increased
same,expression level of MMP-9,[1]; [17],decreased significantly
same,expression level of uPA,[1]; [17],decreased significantly
same,blood glucose (GLU),[2],higher level
same,blood urea nitrogen (BUN),[2],higher level
same,plasma level of aspartate aminotransferase (AST),[2],lower
same,plasma level of blood fat (CHOL),[2],lower
same,plasma level of creatine kinase (CK),[2],lower
same,"inhibition of invasion, agent alone",MDA-MB-231 cells [3],notable inhibition
same,invasion of MDA-MB-231 cells,"MDA-MB-231 cells [3]; sub-cytotoxic concentrations, 24 h",significant inhibition
same,death or body weight loss of mice during the treatment,MDA-MB-231 xenografts,did not cause any death or body weight loss
same,viability at 3 h,in vitro,> 90%
same,cell death of MS1 cells,MS1 cells [4],no significant cell death
same,angiogenesis (tube formation) of MS1 cells,MS1 cells [5],significant inhibition
same,growth inhibition at the concentrations of the migration assay,MDA-MB-231; 0.25-1 μM,insignificant growth inhibition
same,"cell growth inhibition, agent alone",MDA-MB-231,insignificant cell growth inhibitory effects
same,ex vivo angiogenesis in CAM assay,chicken CAM,effective ex vivo anti-angiogenic properties
same,Pearson's correlation coefficient for co-localization with ER-Tracker,HeLa cells [6],0.83
same,"CD34 staining, blood vessel formation in tumors",[7],significant inhibition of blood vessel formation
same,DNA fragmentation (TUNEL assay) in tumor tissues,[7],higher levels
same,caspase-3 in tumor tissues,[7],higher levels
same,expression of Ki67 in tumor tissues,[7]; vs control mice,decrease
same,JC1 ratio of orange to green fluorescence,HeLa cells [8],decrease
same,"inhibition of migration, agent alone",MDA-MB-231 cells [9],notable inhibition
same,migration of MDA-MB-231 cells,"MDA-MB-231 cells [9]; sub-cytotoxic 0.25-1 μM, 24 h",effectively inhibited
same,cyclin D1/D3 and CDK 4/6 expression,[10],down-regulation
same,p15 expression,[10],stimulation
same,CM-mediated invasion of HUVECs,HUVECs [11],significantly suppressed
same,CM-mediated migration of HUVECs,HUVECs [12],significantly suppressed
same,CM-mediated tube formation of HUVECs,HUVECs [13],significantly suppressed
same,cleavage of PARP and caspases 3 and 9,[14],cleaved
same,phosphorylation of FAK at Tyr397,[15]; [18],significantly suppress
same,phosphorylation of FAK at Tyr925 and Tyr576/577,[15]; [18],moderately inhibited
same,total protein level of FAK,[15]; [18],little effect
same,phosphorylation of Akt,[15]; dose- and time-dependent,significantly inhibited
same,phosphorylation of ERK,[15]; dose- and time-dependent,significantly inhibited
same,CHOP level,[16],stimulated
same,phosphorylated PERK level,[16],significant up-regulation
same,phosphorylated eIF2α level,[16],stimulated
"N#CC(=C(/N)Sc1ccccc1N)/C(C#N)=C(\N)Sc1ccccc1N [Complex U0126, reference compound]","inhibition of invasion, agent alone",MDA-MB-231 cells [3],notable inhibition
same,"cell growth inhibition, agent alone",MDA-MB-231,insignificant cell growth inhibitory effects
same,"inhibition of migration, agent alone",MDA-MB-231 cells [9],notable inhibition

# Source: patent publication US10577387B1, “Platinum (II) complexes containing N-heterocyclic carbene ligand and pincer ligands, synthesis, and their applications in cancer treatment” (priority 2018, dated 2020)
